Measurements from patent US11141432B2, “Materials and methods for increasing immune responses” (Mayo Foundation for Medical Education and Research, priority 2016, dated 2021).
Where a SMILES comes first, the peptide text is derived from it. The star is where a group is joined. Cbz = O=C(OCc1ccccc1)*; CH2F = FC*

Key:
[1] = tested on: antigen stimulated OT-1 cells; test: Antigen-induced cytoplasmic and mitochondrial ROS by CM-H2DCFDA and MitoSox staining and flow cytometry; format: cell-based, mice
Procedure: Naïve or resting CD8+ T cells obtained from OT-1 PL Rag−/− TCR transgenic mice were stimulated in vitro with its cognate antigen in the presence of B7.1 co-stimulatory molecule, and cytokine IL-12 for 48h. The antigen constitutes sulfate latex microspheres (Life Technologies Cat. No. S37227) bearing DimerX Ig-recombinant dimeric mouse H-2Kb: Ig fusion protein (BD Biosciences, Cat. No. 550750) with recombinant mouse B7-1/CD80 Fc chimeric protein (R&D Systems, Cat. No. 740-B). Short synthetic peptide SIINFEKL (SEQ ID NO:1) at 10 nM concentration (sequence derived from a chicken ovalbumin protein), presented by H-2Kb DimerX serves as the cognate antigen for TCR of CD8+ T cells from OT-1 PL Rag−/−TCR transgenic mice. CD8+ T cells isolated from lymph nodes and/or spleen were stimulated with antigen in the following culture medium: Glutamine-free RPMI (Corning CellGro, Cat. No. 15-040-CV) supplemented with FBS 10%, HEPES 10 mM, NEAA 1 mM, sodium pyruvate 1 mM, glutamine 2 mM, 2-mercaptoethanol 50 μM, and Pen/Strep. […] To determine whether UCP2 plays a role in antigen induced ROS generation and determine its impact on CD8+ T cell clonal expansion, antigen induced cytoplasmic (CROS) and/or mitochondrial ROS (mROS) production was evaluated by CM-H2DCFDA and MitoSox staining and flow cytometry analysis, respectively. […]

[2] = tested on: CD8+ T cells obtained from OT-1 PL Rag−/− TCR transgenic mice; test: Proliferation, clonal expansion and apoptosis of antigen-stimulated CD8+ T cells; format: cell-based
Procedure: (§1) Naïve or resting CD8+ T cells obtained from OT-1 PL Rag−/− TCR transgenic mice were stimulated in vitro with its cognate antigen in the presence of B7.1 co-stimulatory molecule, and cytokine IL-12 for 48h. The antigen constitutes sulfate latex microspheres (Life Technologies Cat. No. S37227) bearing DimerX Ig-recombinant dimeric mouse H-2Kb: Ig fusion protein (BD Biosciences, Cat. No. 550750) with recombinant mouse B7-1/CD80 Fc chimeric protein (R&D Systems, Cat. No. 740-B). Short synthetic peptide SIINFEKL (SEQ ID NO:1) at 10 nM concentration (sequence derived from a chicken ovalbumin protein), presented by H-2Kb DimerX serves as the cognate antigen for TCR of CD8+ T cells from OT-1 PL Rag−/−TCR transgenic mice. CD8+ T cells isolated from lymph nodes and/or spleen were stimulated with antigen in the following culture medium: Glutamine-free RPMI (Corning CellGro, Cat. No. 15-040-CV) supplemented with FBS 10%, HEPES 10 mM, NEAA 1 mM, sodium pyruvate 1 mM, glutamine 2 mM, 2-mercaptoethanol 50 μM, and Pen/Strep. T cells were cultured in flat-bottom 96-well plates at 2×105/0.2 ml/well with microspheres at the ratio of 5:1. Genipin was added at 50 μM concentration (based on dose titration that produces minimal cell death) and preincubated with cells for 45 mins before subjecting the CD8+ T cells to antigen stimulation. The CD8+ T cells are cultured and harvested at 4 hours to 48 hours for evaluation by molecular, physiologic and phenotypic characteristics by standard methodologies like flow cytometry based phenotyping, lysis for protein or mRNA derivation using western blot, PCR and metabolic flux analysis. Signal one was provided by MHC Class I (H-2Kb) dimers bearing 1-10 nM of OT-1 cognate peptide (SIINFEKL; SEQ ID NO:1) (Ag). Signal two was provided by 1 μg/ml of recombinant murine B7.1 (co-stimulation) immobilized on inert latex microspheres (serves as artificial antigen presenting cells) in the presence of the third signal; 2 ng/ml of rmIL-12 (cytokine). For antigen stimulation, the naïve T cells and latex microspheres were reacted at a ratio of 5:1 (T cells: microspheres) for various time points and were evaluated for their molecular, physiologic and phenotypic characteristics by standard methodologies including flow cytometry, western blot, PCR and metabolic flux analysis (FIG. 1). To determine whether UCP2 plays a role in antigen induced ROS generation and determine its impact on CD8+ T cell clonal expansion, antigen induced cytoplasmic (CROS) and/or mitochondrial ROS (mROS) production was evaluated by CM-H2DCFDA and MitoSox staining and flow cytometry analysis, respectively. Genetic (si-UCP2) or pharmacological (Genipin) means were used to block UCP2 function.

[3] = tested on: CD8+ T cells; test: Metabolic flux analysis (ECAR/OCR, spare respiratory capacity) of antigen-stimulated CD8+ T cells; format: cell-based, mice; conditions: antigen stimulation in the presence of Genipin, FIG. 4A
Procedure: Naïve or resting CD8+ T cells obtained from OT-1 PL Rag−/− TCR transgenic mice were stimulated in vitro with its cognate antigen in the presence of B7.1 co-stimulatory molecule, and cytokine IL-12 for 48h. The antigen constitutes sulfate latex microspheres (Life Technologies Cat. No. S37227) bearing DimerX Ig-recombinant dimeric mouse H-2Kb: Ig fusion protein (BD Biosciences, Cat. No. 550750) with recombinant mouse B7-1/CD80 Fc chimeric protein (R&D Systems, Cat. No. 740-B). Short synthetic peptide SIINFEKL (SEQ ID NO:1) at 10 nM concentration (sequence derived from a chicken ovalbumin protein), presented by H-2Kb DimerX serves as the cognate antigen for TCR of CD8+ T cells from OT-1 PL Rag−/−TCR transgenic mice. CD8+ T cells isolated from lymph nodes and/or spleen were stimulated with antigen in the following culture medium: Glutamine-free RPMI (Corning CellGro, Cat. No. 15-040-CV) supplemented with FBS 10%, HEPES 10 mM, NEAA 1 mM, sodium pyruvate 1 mM, glutamine 2 mM, 2-mercaptoethanol 50 μM, and Pen/Strep. […] For antigen stimulation, the naïve T cells and latex microspheres were reacted at a ratio of 5:1 (T cells: microspheres) for various time points and were evaluated for their molecular, physiologic and phenotypic characteristics by standard methodologies including flow cytometry, western blot, PCR and metabolic flux analysis (FIG. 1).

[4] = tested on: CD8+ T cells; test: Phenotyping of effector differentiation markers and transcription factors in CD8+ T cells; format: cell-based, mice; conditions: CD8+ T cells treated with Genipin
Procedure: as §1, with “1).” for “1). To determine whether UCP2 plays a role in antigen induced ROS generation and determine its impact on CD8+ T cell clonal expansion, antigen induced cytoplasmic (CROS) and/or mitochondrial ROS (mROS) production was evaluated by CM-H2DCFDA and MitoSox staining and flow cytometry analysis, respectively. Genetic (si-UCP2) or pharmacological (Genipin) means were used to block UCP2 function.”

[5] = tested on: CD8+ T cells; test: Lipid content / de novo lipid synthesis in antigen-stimulated CD8+ T cells; format: cell-based, mice
Procedure: Naïve or resting CD8+ T cells obtained from OT-1 PL Rag−/− TCR transgenic mice were stimulated in vitro with its cognate antigen in the presence of B7.1 co-stimulatory molecule, and cytokine IL-12 for 48h. The antigen constitutes sulfate latex microspheres (Life Technologies Cat. No. S37227) bearing DimerX Ig-recombinant dimeric mouse H-2Kb: Ig fusion protein (BD Biosciences, Cat. No. 550750) with recombinant mouse B7-1/CD80 Fc chimeric protein (R&D Systems, Cat. No. 740-B). Short synthetic peptide SIINFEKL (SEQ ID NO:1) at 10 nM concentration (sequence derived from a chicken ovalbumin protein), presented by H-2Kb DimerX serves as the cognate antigen for TCR of CD8+ T cells from OT-1 PL Rag−/−TCR transgenic mice. CD8+ T cells isolated from lymph nodes and/or spleen were stimulated with antigen in the following culture medium: Glutamine-free RPMI (Corning CellGro, Cat. No. 15-040-CV) supplemented with FBS 10%, HEPES 10 mM, NEAA 1 mM, sodium pyruvate 1 mM, glutamine 2 mM, 2-mercaptoethanol 50 μM, and Pen/Strep. T cells were cultured in flat-bottom 96-well plates at 2×105/0.2 ml/well with microspheres at the ratio of 5:1. Genipin was added at 50 μM concentration (based on dose titration that produces minimal cell death) and preincubated with cells for 45 mins before subjecting the CD8+ T cells to antigen stimulation. […]

[6] = UCP2 inhibited OT-1 cells, FIG. 3C

## COC(=O)C1=CO[C@@H](O)[C@@H]2C(CO)=CC[C@H]12 [Genipin]
[1]; Genipin treated
  mitochondrial reactive oxygen species (ROS): increase
[2]; Genipin treated, 50 μM, FIG. 3A
  proliferation of activated CD8+ T cells: limited proliferation
[2]; Genipin treated, FIG. 3B
  apoptosis (contraction in clonal expansion): increased apoptosis
[3]
  ECAR/OCR ratio (glycolysis over mitochondrial respiration): higher
  spare respiratory capacity (SRC): very low
[4]
  PD-1 and Lag3 expression: increases
[4]; FIG. 5
  Blimp1/BC16 ratio: increasing
  Tbet/Eomes ratio: increasing
  expression of IFNγ, Gzmb, and effector cell markers KLRG1 and CXCR3: increased expression
[5]; antigen stimulation in the presence of Genipin, FIG. 4B
  lipid content (de novo lipid synthesis): increased lipid content

## CC(NC(=O)C(NC(=O)OCc1ccccc1)C(C)C)C(=O)NC(CC(=O)O)C(=O)CF (stereo not drawn) [ZVAD] (Cbz-Val-Ala-Asp-CH2F; configuration not given here)
[2]; added to Genipin treated cells, FIG. 3B
  Genipin-induced contraction in clonal expansion on addition of pan caspase inhibitor: can be reversed

## SML0068
[5]; UCP2 inhibited cells, FIG. 4D
  lipid synthesis on blocking cytoplasmic export of citrate from the mitochondria: reduced lipid synthesis

## CC1(C)CC(NC(=O)C[P+](c2ccccc2)(c2ccccc2)c2ccccc2)CC(C)(C)N1[O] [MitoTempo]
[1]; [6]
  mitochondrial ROS after quenching with mitochondrially targeted antioxidant: reverses ROS
[2]; [6]
  cell proliferation and cell contraction after quenching of mitochondrial ROS: restored
